Measurements from PMC8658773, “Two New Isoprenoid Flavonoids from Sophora flavescens with Antioxidant and Cytotoxic Activities” (Molecules, 2021).

Legend:
A549 cells = assay: Cytotoxic activity (MTS assay), A549; format: cell-based, human; details: Homo sapiens, A549; 10 µM; SD in brackets; read-out: A549 cell inhibitory activity (Table S5)
HepG2 cells = assay: Cytotoxic activity (MTS assay), HepG2; format: cell-based, human; details: Homo sapiens, HepG2, 10 µM; SD in brackets; read-out: HepG2 cell inhibitory activity (Table S4)
LO2 cells = assay: Cytotoxic activity (MTS assay), LO2 normal cells; format: cell-based, human; details: Homo sapiens, L02; 10 µM; SD in brackets; read-out: LO2 cell inhibitory activity (Table S7)
[1] = ABTS free radical scavenging assay; format: biochemical; details: for ABTS radical scavenging activity (inhibition rate): 20 μg/mL, SD in brackets
Method: The third assay, the ABTS free radical scavenging screen was performed by previous experiments with slight changes. First, we needed to prepare for the ABTS^+ solution. […] Then, they were mixed with equal volume at room temperature and kept away from light for 12 h, the mixed solution was diluted with ethanol until the absorbance of […]. Thus, the ABTS^+ solution was obtained. Furthermore, the compounds (100 µL, 40 µg/mL) with ABTS^+ solution (100 µL) were also added to the 96-well plates (as the value of Ai) and were interacted for 10 min at room temperature in the dark, then the absorbance at 734 nm was measured. VC was used as the positive control. Antioxidant capacity was calculated according to the first formula (the value of 100 µL ethanol with 100 µL ABTS^+ solution as A0, the value of 100 µL compounds with 100 µL ethanol as Aj). All experiments were carried out in triplicate.

MCF7 cells = assay: Cytotoxic activity (MTS assay), MCF7; format: cell-based, human; details: Homo sapiens, MCF7; 10 µM; SD in brackets; read-out: MCF-7 cell inhibitory activity (Table S6)
[2] = DPPH free radical scavenging assay; format: biochemical; details: for DPPH radical scavenging activity (inhibition rate): 20 μg/mL, SD in brackets
Method: The in vitro antioxidant activity tests were conducted according to previous reports. Among them, the DPPH free radical scavenging assay was slightly modified. Briefly, the DPPH material was precisely weighed, ethanol solution was added to obtain a concentration of 0.1 mmol/L (to use immediately, or store in the dark). Then, the compounds (100 µL, 40 µg/mL) with DPPH solution (100 µL) (Ai) were added to 96-well plates and incubated for 30 min at room temperature. Subsequently, the activity was measured using the Thermo Scientific Varioskan LUX ([…], VL0L00D0, USA), with an absorbance of 570 nm. Vitamin C (VC) (40 µg/mL) was used as the positive control.

[3] = PTIO free radical scavenging assay; format: biochemical; details: for PTIO radical scavenging activity (inhibition rate): 8 μg/mL, SD in brackets
Method: PTIO free radical scavenging was also performed following previous reports with some modification. VC was used as the positive control. PTIO radicals were dissolved with phosphate buffer (PBS) (pH 7.4, 50 mM) with a concentration of 0.05 mg/mL. Then, the samples (40 µL, 40 µg/mL) and PTIO solution (160 µL) were added into 96-well plates (as the value of Ai). After being thoroughly mixed, the reaction solution was incubated at 37 °C in a water-bath for 2 h. Then, the absorbance was measured at 557 nm. PTIO free radical scavenging was calculated using the above equation. (40 µL PBS with 160 µL PTIO as A0, 40 µL compounds with 160 µL PBS as Aj).

Compound | inhibition at 10 µM (A549 cells) [%] | inhibition at 10 µM (HepG2 cells) [%] | inhibition at 10 µM (LO2 cells) [%] | ABTS radical scavenging IC50 [1] [µg/mL] | inhibition at 10 µM (MCF7 cells) [%] | DPPH radical scavenging activity (inhibition rate) [2] | PTIO radical scavenging activity (inhibition rate) [3] | DPPH radical scavenging IC50 [2] [µg/mL] | PTIO radical scavenging IC50 [3] [µg/mL] | ABTS radical scavenging activity (inhibition rate) [1]
COc1cc(O)c2c(=O)c(-c3ccc(O)c(OC)c3)coc2c1 [Compound 17, 7,3′-di-O-methyl] | 40.9 | 8.7 | 1.1 | 2.91 | 5.3 | 42.0% (1.4%) | 38.9% (2.4%) | – | – | –
CC(C)=CCc1c(O)cc(O)c2c(=O)c(O)c(-c3ccc(O)cc3)oc12 [Compound 15, noranhyoicaritin] | 13.4 | 8.8 | 7.7 | 1.91 | 5.8 | – | 68.0% (8.1%) | 2.42 | 2.70 | –
C=C(C)[C@H](CCC(C)(C)O)Cc1c(O)cc(OC)c2c1O[C@H](c1ccc(O)cc1O)CC2=O [Compound 12, kurarinol] | 37 | 0.9 | 11.4 | 1.31 | 4.8 | 30.8% (1.9%) | 37.5% (1.7%) | – | – | –
O=C(/C=C/c1ccc(O)cc1)c1ccc(O)cc1O [Compound 8, isoliquiritigenin] | -5.7 | 1.7 | -2.1 | – | 7.2 | – | – | – | – | –
CC(C)=CCC(Cc1c(O)cc(O)c2c1OC(c1ccc(O)cc1O)CC2=O)C(C)CO (stereo not shown) [Compound 9, kushenol Q] | -10.9 | 3.5 | 5.3 | 3.72 | 4.5 | 30.4% (5.4%) | 36.7% (0.8%) | – | – | –
O=c1c(-c2ccc(O)cc2)coc2cc(O)cc(O)c12 [Compound 18, genistein] | 6.6 | 1 | 5 | – | 4.3 | 28.0% (6.2%) | 35.8% (2.0%) | – | – | 69.0% (1.4%)
CC(C)=CCc1c(O)cc(O)c2c1OC(c1ccc(O)cc1)CC2=O (stereo not shown) [Compound 10, sophoraflavanone B] | 8 | 9.3 | 4.7 | – | 7.7 | 32.2% (1.9%) | 38.6% (1.3%) | – | – | 88.0% (2.1%)
O=c1ccc2ccc(O)cc2o1 [Compound 24, 7-hydroxycoumarin] | 21.4 | – | -0.3 | – | 5.7 | 25.2% (3.7%) | 36.6% (3.1%) | – | – | 16.8% (3.2%)
COc1ccc(-c2coc3cc(O)ccc3c2=O)cc1O [Compound 19, calycosin] | 6.4 | 4.3 | 16.6 | – | – | 25.6% (1.1%) | 37.0% (0.7%) | – | – | 51.3% (2.4%)
C=C(C)C(CCC(C)(C)O)Cc1cc(O)c(C(=O)/C=C/c2ccc(O)cc2O)c(OC)c1O (stereo not shown) [Compound 5, kuraridinol] | -0.2 | 5.6 | -7.2 | – | 7.4 | 29.1% (8.7%) | 37.7% (1.8%) | – | – | 75.7% (1.5%)
COc1cc(O)c(CC=C(C)C)c2oc(-c3ccc(O)cc3)c(O)c(=O)c12 [Compound 14, sophoflavescenol] | 6.9 | 11.4 | 5.5 | 2.91 | 2.8 | – | 55.0% (9.4%) | 3.52 | 5.51 | –
O=c1cc(-c2ccc(O)c(O)c2)oc2cc(O)cc(O)c12 [Compound 23, luteolin] | 41.3 | 1.1 | 19.8 | 1.51 | -4.7 | – | 43.3% (2.0%) | 0.90 | – | –
COc1cc(O)c(CC=C(C)C)c(O)c1C(=O)/C=C/c1ccc(O)cc1 [Compound 7, xanthohumol] | 16.4 | 10.4 | 13.9 | – | 11.7 | 34.7% (1.9%) | 40.3% (1.4%) | – | – | 87.9% (2.0%)
COc1ccc(C(=O)O)c(O)c1 [Compound 26, 4-methoxysalicylic acid] | 9.4 | 1.5 | -6.2 | – | 0.7 | 25.4% (4.9%) | 37.7% (1.6%) | – | – | 72.9% (3.0%)
COc1ccc(-c2coc3cc(O)cc(O)c3c2=O)cc1 [Compound 21, biochanin A] | 8.7 | 7.1 | 5.8 | – | 1 | 46.8% (1.8%) | 37.9% (0.6%) | – | – | 76.4% (1.3%)
C=C(C)[C@H](CC=C(C)C)Cc1c(O)cc(OC)c(C(=O)/C=C/c2ccc(O)cc2O)c1O [Compound 6, kuraridine] | 2 | 0.9 | -0.2 | 3.52 | 15 | 41.9% (5.6%) | 40.6% (2.2%) | – | – | –
O=c1cc(-c2ccc(O)cc2)oc2cccc(O)c12 [Compound 22, 5,4′-dihydroxyflavone] | 29.7 | 0.6 | -4.6 | – | 9 | 34.6% (3.4%) | 39.4% (1.0%) | – | – | 76.3% (4.7%)
O=C1O[C@H]([C@@H](O)CO)C(O)=C1O [VC, vitamin C, reference compound] | – | – | – | – | – | 97% | – | – | – | –
O=c1c(O)c(-c2ccc(O)c(O)c2)oc2cc(O)cc(O)c12 [Compound 16, quercetin] | 12.1 | 4.6 | 9.8 | 0.90 | 11.9 | – | 62.0% (2.2%) | 1.11 | 4.71 | –
O=C1C[C@@H](c2ccc(O)cc2)Oc2cc(O)cc(O)c21 [Compound 11, naringenin] | 14.7 | 3.6 | 5.8 | – | 0.7 | 24.5% (3.9%) | 37.8% (2.2%) | – | – | 55.4% (2.2%)
COc1ccc(-c2coc3cc(O)ccc3c2=O)cc1 [Compound 20, formononetin] | -6.2 | 1.4 | 5.8 | – | 8.7 | 20.2% (1.0%) | 36.2% (2.0%) | – | – | 23.3% (0.9%)
O=C(O)c1ccc(O)cc1O [Compound 27, b-resorcylic acid] | 22.8 | 1.9 | 1.9 | – | 14.1 | 23.1% (2.5%) | – | – | – | 63.4% (1.4%)
